Series [1] relates to recombinant NL4-3 virus (nef section replaced with Renilla luciferase gene) in MT-2 cells. Description: HIV cell culture assay (antiviral activity, luciferase readout). In kind it is cell-based. The conditions noted are these: Renilla, NL43. As for the experimental part: HIV cell culture assay—MT-2 cells, 293T cells and the proviral DNA clone of NL4-3 virus were obtained from the NIH AIDS Research and Reference Reagent Program. MT-2 cells were propagated in RPMI 1640 media supplemented with 10% heat inactivated fetal bovine serum (FBS), 100 μg/ml penicillin G and up to 100 units/mL streptomycin. The 293T cells were propagated in DMEM media supplemented with 10% heat inactivated FBS, 100 μg/mL penicillin G and 100 μg/mL streptomycin. A recombinant NL4-3 proviral clone, in which a section of the nef gene was replaced with the Renilla luciferase gene, was used to make the reference virus used in these studies. The recombinant virus was prepared through transfection of the recombinant NL4-3 proviral clone into 293T cells using Transit-293 Transfection Reagent from Mirus Bio LLC (Madison, Wis.). Supernatent was harvested after 2-3 days and the amount of virus present was titered in MT-2 cells using luciferase enzyme activity as a marker by measuring luciferase enzyme activity. Luciferase was quantitated using the EnduRen Live Cell Substrate from Promega (Madison, Wis.). Antiviral activities of compounds toward the recombinant virus were quantified by measuring luciferase activity in MT-2 cells infected for 4-5 days with the recombinant virus in the presence of serial dilutions of the compound.
The 50% effective concentration (EC50) was calculated by using the exponential form of the median effect equation where (Fa)=1/[1+(ED50/drug conc.)^m] (Johnson V A, Byington R T. Infectivity Assay. In Techniques in HIV Research. ed. Aldovini A, Walker B D. 71-76. New York: Stockton Press. 1990). Curve fitting and analysis were performed with ActivityBase XE Runner software version 9.1.0.4 using model 203 (ID Business Solutions, LTD, Guildford, UK).

The nature of series [2]: Compound cytotoxicity, XTT-based colorimetric assay. Particulars: human; uninfected MT2 cells, day 4, XTT-based colorimetric assay. In kind it is cell-based. As for the experimental part:
Compound cytotoxicity and the corresponding CC50 values were determined using the same protocol as described in the antiviral assay except that uninfected cells were used. Cytotoxicity was assessed on day 4 in uninfected MT2 cells by using a XTT (2,3-bis[2-Methoxy-4-nitro-5-sulfophenyl]-2H-tetrazolium-5-carboxyanilide inner salt)-based colorimetric assay (Sigma-Aldrich, St Louis, Mo.).

A value given as a limit tells only on which side of the number the result lay.

Regarding `Cn1nc(C(F)(F)F)cc1-c1cc(=O)n(-c2ccc(Cl)c3c(NS(C)(=O)=O)nn(C)c23)c([C@H](Cc2cc(F)cc(F)c2)NC(=O)Cn2nc(C(F)F)c3c2C(F)(F)[C@@H]2C[C@H]32)n1` (atropisomer, axis not shown; (P)) [Example 19, N-((S)-1-((1P)-1-(4-chloro-1-methyl-3-(methylsulfonamido)-1H-indazol-7-yl)-4-(1-methyl-3-(trifluoromethyl)-1H-pyrazol-5-yl)-6-oxo-1,6-dihydropyrimidin-2-yl)-2-(3,5-difluorophenyl)ethyl)-2-((3bS,4aR)-3-(difluoromethyl)-5,5-difluoro-3b,4,4a,5-tetrahydro-1H-cyclopropa[3,4]cyclopenta[1,2-c]pyrazol-1-yl)acetamide], the EC50 in series [1] amounted to 0.74 nM. For the same molecule, in series [2], the CC50 at 4 days was more than 100 nM.
For `Cn1nc(NS(C)(=O)=O)c2c(Cl)ccc(-n3c([C@H](Cc4cc(F)cc(F)c4)NC(=O)Cn4nc(C(F)F)c5c4C(F)(F)[C@@H]4C[C@H]54)nc(-c4cnccn4)cc3=O)c21` (atropisomer, axis not shown; (P)) [Example 20, N-((S)-1-((1P)-1-(4-chloro-1-methyl-3-(methylsulfonamido)-1H-indazol-7-yl)-6-oxo-4-(pyrazin-2-yl)-1,6-dihydropyrimidin-2-yl)-2-(3,5-difluorophenyl)ethyl)-2-((3bS,4aR)-3-(difluoromethyl)-5,5-difluoro-3b,4,4a,5-tetrahydro-1H-cyclopropa[3,4]cyclopenta[1,2-c]pyrazol-1-yl)acetamide], in that order: 0.16 nM and more than 100 nM.
On the same counts, the results for `CCOc1ccc(-c2cc(=O)n(-c3ccc(Cl)c4c(NS(C)(=O)=O)nn(C)c34)c([C@H](Cc3cc(F)cc(F)c3)NC(=O)Cn3nc(C(F)F)c4c3C(F)(F)[C@@H]3C[C@H]43)n2)cn1` (atropisomer, axis not shown; (P)) [Example 22, N-((S)-1-((1P)-1-(4-chloro-1-methyl-3-(methylsulfonamido)-1H-indazol-7-yl)-4-(6-ethoxypyridin-3-yl)-6-oxo-1,6-dihydropyrimidin-2-yl)-2-(3,5-difluorophenyl)ethyl)-2-((3bS,4aR)-3-(difluoromethyl)-5,5-difluoro-3b,4,4a,5-tetrahydro-1H-cyclopropa[3,4]cyclopenta[1,2-c]pyrazol-1-yl)acetamide] are 0.46 nM and more than 100 nM.
On the same counts, the results for `Cn1nc(NS(C)(=O)=O)c2c(Cl)ccc(-n3c([C@H](Cc4cc(F)cc(F)c4)NC(=O)Cn4nc(C(F)F)c5c4C(F)(F)[C@@H]4C[C@H]54)nc(-c4cccc(F)n4)cc3=O)c21` (atropisomer, axis not shown; (P)) [Example 23, N-((S)-1-((1P)-1-(4-chloro-1-methyl-3-(methylsulfonamido)-1H-indazol-7-yl)-4-(6-fluoropyridin-2-yl)-6-oxo-1,6-dihydropyrimidin-2-yl)-2-(3,5-difluorophenyl)ethyl)-2-((3bS,4aR)-3-(difluoromethyl)-5,5-difluoro-3b,4,4a,5-tetrahydro-1H-cyclopropa[3,4]cyclopenta[1,2-c]pyrazol-1-yl)acetamide] are 0.42 nM and more than 100 nM.
For the molecule `Cn1nc(NS(C)(=O)=O)c2c(Cl)ccc(-n3c([C@H](Cc4cc(F)cc(F)c4)NC(=O)Cn4nc(C(F)F)c5c4C(F)(F)[C@@H]4C[C@H]54)nc(-c4ccc(Cl)cn4)cc3=O)c21` (atropisomer, axis not shown; (P)) [Example 24, N-((S)-1-((1P)-1-(4-chloro-1-methyl-3-(methylsulfonamido)-1H-indazol-7-yl)-4-(5-chloropyridin-2-yl)-6-oxo-1,6-dihydropyrimidin-2-yl)-2-(3,5-difluorophenyl)ethyl)-2-((3bS,4aR)-3-(difluoromethyl)-5,5-difluoro-3b,4,4a,5-tetrahydro-1H-cyclopropa[3,4]cyclopenta[1,2-c]pyrazol-1-yl)acetamide], in series [1], the EC50 is 0.37 nM. The same molecule had a CC50 at 4 days in series [2] of more than 100 nM.
